From patent US12065430B2, “Indazole compound or salt thereof” (TAIHO PHARMACEUTICAL CO., LTD., priority 2018, dated 2024) come the findings set out here.

One assay concerns the target G12C K-Ras4B (1-169) (Homo sapiens (Human), UniProt P01116, G12C). The assay is described as follows: Test of compounds on whether to bind to KRASG12C (LC-MS compound binding rate). The conditions noted are these: final compound concentration of 2 μM, 1 μM protein, 25° C. for 2 hours. The method in brief: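 K-Ras4B (1-169) WT and G12C (1 μM each, mixed) in 1×TBS, 0.1 mM TCEP incubated with compound (final 2 μM) 2 h at 25° C; quenched with 0.2% formic acid. Intact-protein LC-MS (ESI+, deconvoluted); binding rate = adduct signal/(adduct + unbound signal), giving selectivity over WT.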

The next assay has as its system NCI-H358 cells. The assay is described as follows: Growth inhibition activity on KRAS-G12C mutant cell line (NCI-H358) (in vitro, CellTiter-Glo2.0). The format is cell-based. Conditions: Homo sapiens, NCI-H358, 72 h, 3-day culture in the presence of the compound. The procedure: NCI-H358 cells (ATCC, Cat #: CRL-5807), which are a KRAS-G12C mutant human lung cancer cell line, were suspended in a 10% fetal bovine serum-containing RPMI1640 medium (manufactured by Fujifilm Wako Pure Chemical Corporation.). The cell suspension was seeded into each well of a 384-well flat-bottom microplate and cultured in an incubator containing 5% CO2 gas at 37° C. for 1 day. The test compound was dissolved in DMSO, and diluted with DMSO to give a concentration 500 times the final concentration. The solution of the test compound in DMSO was diluted with the medium used for suspending cells and added to each well of the cell-culture plate to give a DMSO final concentration of 0.2%, followed by culture in an incubator containing 5% CO2 gas at 37° C. for another 3 days. The cell count after 3-day culture in the presence of the compound was measured using CellTiter-Glo2.0 (manufactured by Promega Corporation) in accordance with the protocol recommended by Promega Corporation. The growth inhibition rate was calculated from the following equation, and the concentration of the test compound at which 50% inhibition was achieved (IC50 (nM)) was determined. […] Growth Inhibition Rate (%)=(C−T)/(C)×100 • T: the emission intensity in a well into which a test compound was added. • C: the emission intensity in a well into which a test compound was not added.
(In ATP-based viability assays light output follows the ATP content of the culture.)

Usually IC50 stands for the concentration needed to halve the response being measured. On to `C=CC(=O)N1CC(NC(=O)c2c(C)nc(CNc3n[nH]c4cc(Cl)c(C(C)(C)C)cc34)n2C)C1` [Example 3, N-(1-acryloylazetidin-3-yl)-2-(((5-(tert-butyl)-6-chloro-1H-indazol-3-yl)amino)methyl)-1,4-dimethyl-1H-imidazole-5-carboxamide], for which the “binding rate for G12C K-Ras4B (1-169)” value at G12C K-Ras4B (1-169) is listed as “A (a binding rate of 80% or more is rated “A,”)”. Also, the IC50 in the assay with NCI-H358 cells worked out at 114 nM.

On to `C=CC(=O)N1CC(NC(=O)c2c(C)nc(CNc3n[nH]c4cc(Cl)c(C(C)(C)C)cc34)n2C(C)C)C1` [Example 13, N-(1-acryloylazetidin-3-yl)-2-(((5-(tert-butyl)-6-chloro-1H-indazol-3-yl)amino)methyl)-1-isopropyl-4-methyl-1H-imidazole-5-carboxamide], for which the “binding rate for G12C K-Ras4B (1-169)” value on G12C K-Ras4B (1-169) was “A (a binding rate of 80% or more is rated “A,”)”. Further, the IC50 in the assay with NCI-H358 cells came out at 135 nM.

With `C=CC(=O)N1CC(NC(=O)c2c(Cl)nc(CNc3n[nH]c4cc(Cl)c(C(C)(C)C)cc34)n2C)C1` [Example 29, N-(1-acryloylazetidin-3-yl)-2-(((5-(tert-butyl)-6-chloro-1H-indazol-3-yl)amino)methyl)-4-chloro-1-methyl-1H-imidazole-5-carboxamide], the “binding rate for G12C K-Ras4B (1-169)” value on G12C K-Ras4B (1-169) was “B (a binding rate of 60% or more and less than 80% is rated “B,”)”. Besides, the IC50 in the assay with NCI-H358 cells stood at 34 nM.

In the case of `C=CC(=O)N1CC(NC(=O)c2c(C(F)F)nc(CNc3n[nH]c4cc(Cl)c(C(C)(C)C)cc34)n2C(C)C)C1` [Example 33, N-(1-acryloylazetidin-3-yl)-2-(((5-(tert-butyl)-6-chloro-1H-indazol-3-yl)amino)methyl)-4-(difluoromethyl)-1-isopropyl-1H-imidazole-5-carboxamide], the “binding rate for G12C K-Ras4B (1-169)” value at G12C K-Ras4B (1-169) is recorded as “A (a binding rate of 80% or more is rated “A,”)”. The IC50 in the assay with NCI-H358 cells worked out at 153 nM.

For `C=CC(=O)N1CC(NC(=O)c2c(Cl)nc(CNc3n[nH]c4cc(Cl)c(C(C)(C)C)cc34)n2[C@H]2C[C@H](C)CC[C@H]2C(C)C)C1` [Example 111, N-(1-acryloylazetidin-3-yl)-2-(((5-(tert-butyl)-6-chloro-1H-indazol-3-yl)amino)methyl)-4-chloro-1-((1S,2S,5R)-2-isopropyl-5-methylcyclohexyl)-1H-imidazole-5-carboxamide], the “binding rate for G12C K-Ras4B (1-169)” value at G12C K-Ras4B (1-169) is “B (a binding rate of 60% or more and less than 80% is rated “B,”)”.

On to `C=CC(=O)N1CC(NC(=O)c2c(Cl)nc(CNc3n[nH]c4cc(Cl)c(C(C)(C)C)cc34)n2[C@@H]2CCN(CC(F)F)C2)C1` [Example 113, (R)—N-(1-acryloylazetidin-3-yl)-2-(((5-(tert-butyl)-6-chloro-1H-indazol-3-yl)amino)methyl)-4-chloro-1-(1-(2,2-difluoroethyl)pyrrolidin-3-yl)-1H-imidazole-5-carboxamide], for which, at G12C K-Ras4B (1-169), the “binding rate for G12C K-Ras4B (1-169)” value is “A (a binding rate of 80% or more is rated “A,”)”.

For `C=CC(=O)N1CC(NC(=O)c2c(Cl)nc(CNc3n[nH]c4cc(Cl)c(C(C)(C)C)cc34)n2[C@H]2CCN(CC(F)F)C2)C1` [Example 115, (S)—N-(1-acryloylazetidin-3-yl)-2-(((5-(tert-butyl)-6-chloro-1H-indazol-3-yl)amino)methyl)-4-chloro-1-(1-(2,2-difluoroethyl)pyrrolidin-3-yl)-1H-imidazole-5-carboxamide], at G12C K-Ras4B (1-169), the “binding rate for G12C K-Ras4B (1-169)” value is recorded as “A (a binding rate of 80% or more is rated “A,”)”.

`C=CC(=O)N1CC(NC(=O)c2c(Cl)nc(CNc3n[nH]c4cc(Cl)c(C(C)(C)C)cc34)n2[C@H]2CCN(C(C)C)C2)C1` [Example 116, (S)—N-(1-acryloylazetidin-3-yl)-2-(((5-(tert-butyl)-6-chloro-1H-indazol-3-yl)amino)methyl)-4-chloro-1-(1-isopropylpyrrolidin-3-yl)-1H-imidazole-5-carboxamide]: on G12C K-Ras4B (1-169), the “binding rate for G12C K-Ras4B (1-169)” value was “B (a binding rate of 60% or more and less than 80% is rated “B,”)”.

For `C=CC(=O)N1CC(NC(=O)c2c(Cl)nc(CNc3n[nH]c4cc(Cl)c(C(C)(C)C)cc34)n2C2CCCN(CC(F)F)C2)C1` (stereo not shown) [Example 117, N-(1-acryloylazetidin-3-yl)-2-(((5-(tert-butyl)-6-chloro-1H-indazol-3-yl)amino)methyl)-4-chloro-1-(1-(2,2-difluoroethyl)piperidin-3-yl)-1H-imidazole-5-carboxamide], the “binding rate for G12C K-Ras4B (1-169)” value at G12C K-Ras4B (1-169) is listed as “A (a binding rate of 80% or more is rated “A,”)”.

As for `C=CC(=O)N1CC(NC(=O)c2c(Cl)nc(CNc3n[nH]c4cc(Cl)c(C(C)(C)C)cc34)n2C2CCCN(C)C2)C1` (stereo not shown) [Example 118, N-(1-acryloylazetidin-3-yl)-2-(((5-(tert-butyl)-6-chloro-1H-indazol-3-yl)amino)methyl)-4-chloro-1-(1-methylpiperidin-3-yl)-1H-imidazole-5-carboxamide], on G12C K-Ras4B (1-169), the “binding rate for G12C K-Ras4B (1-169)” value is reported as “A (a binding rate of 80% or more is rated “A,”)”.

As for `C=CC(=O)N1CC(NC(=O)c2c(Cl)nc(CNc3n[nH]c4cc(Cl)c(C(C)(C)C)cc34)n2[C@@H]2CCN(CCOC)C2)C1` [Example 119, (R)—N-(1-acryloylazetidin-3-yl)-2-(((5-(tert-butyl)-6-chloro-1H-indazol-3-yl)amino)methyl)-4-chloro-1-(1-(2-methoxyethyl)pyrrolidin-3-yl)-1H-imidazole-5-carboxamide], the “binding rate for G12C K-Ras4B (1-169)” value at G12C K-Ras4B (1-169) is “B (a binding rate of 60% or more and less than 80% is rated “B,”)”.

Take `C=CC(=O)N1CC(NC(=O)c2c(Cl)nc(CNc3n[nH]c4cc(Cl)c(C(C)(C)C)cc34)n2[C@@H]2CCN(C3CC3)C2)C1` [Example 120, (R)—N-(1-acryloylazetidin-3-yl)-2-(((5-(tert-butyl)-6-chloro-1H-indazol-3-yl)amino)methyl)-4-chloro-1-(1-cyclopropylpyrrolidin-3-yl)-1H-imidazole-5-carboxamide]: the “binding rate for G12C K-Ras4B (1-169)” value at G12C K-Ras4B (1-169) is given as “A (a binding rate of 80% or more is rated “A,”)”.

`C=CC(=O)N1CC(NC(=O)c2c(Cl)nc(CNc3n[nH]c4cc(Cl)c(C(C)(C)C)cc34)n2[C@@H]2CCN(C3COC3)C2)C1` [Example 121, (R)—N-(1-acryloylazetidin-3-yl)-2-(((5-(tert-butyl)-6-chloro-1H-indazol-3-yl)amino)methyl)-4-chloro-1-(1-(oxetan-3-yl)pyrrolidin-3-yl)-1H-imidazole-5-carboxamide]: the “binding rate for G12C K-Ras4B (1-169)” value on G12C K-Ras4B (1-169) is given as “A (a binding rate of 80% or more is rated “A,”)”.

For `C=CC(=O)N1CC(NC(=O)c2c(Cl)nc(CNc3n[nH]c4cc(Cl)c(C(C)(C)C)cc34)n2[C@@H]2CCN(Cc3ccccc3)C2)C1` [Example 122, (R)—N-(1-acryloylazetidin-3-yl)-1-(1-benzylpyrrolidin-3-yl)-2-(((5-(tert-butyl)-6-chloro-1H-indazol-3-yl)amino)methyl)-4-chloro-1H-imidazole-5-carboxamide], at G12C K-Ras4B (1-169), the “binding rate for G12C K-Ras4B (1-169)” value was “A (a binding rate of 80% or more is rated “A,”)”.

Turning to `C=CC(=O)N1CC(NC(=O)c2c(Cl)nc(CNc3n[nH]c4cc(Cl)c(C(C)(C)C)cc34)n2[C@@H]2CCN(CC(F)F)[C@H]2C)C1` [Example 125, N-(1-acryloylazetidin-3-yl)-2-(((5-(tert-butyl)-6-chloro-1H-indazol-3-yl)amino)methyl)-4-chloro-1-((2S,3R)-1-(2,2-difluoroethyl)-2-methylpyrrolidin-3-yl)-1H-imidazole-5-carboxamide], the “binding rate for G12C K-Ras4B (1-169)” value on G12C K-Ras4B (1-169) is “A (a binding rate of 80% or more is rated “A,”)”.

Take `C=CC(=O)N1CC(NC(=O)c2cnc(CNc3n[nH]c4cc(Cl)c(Br)cc34)n2C)C1` [Reference Example 1, N-(1-acryloylazetidin-3-yl)-2-(((5-bromo-6-chloro-1H-indazol-3-yl)amino)methyl)-1-methyl-1H-imidazole-5-carboxamide, reference compound]: on G12C K-Ras4B (1-169), the “binding rate for G12C K-Ras4B (1-169)” value is “E (a binding rate of less than 20% is rated “E.”)”.

As to `C=CC(=O)N1CC(NC(=O)c2ccc(CNc3n[nH]c4cc(Cl)c(C(C)(C)C)cc34)o2)C1` [Reference Example 2, N-(1-acryloylazetidin-3-yl)-5-(((5-(tert-butyl)-6-chloro-1H-indazol-3-yl)amino)methyl)furan-2-carboxamide, reference compound], on G12C K-Ras4B (1-169), the “binding rate for G12C K-Ras4B (1-169)” value is on record as “E (a binding rate of less than 20% is rated “E.”)”.

Regarding `C=CC(=O)N1CC(NC(=O)c2c(-c3ccccc3)nc(CNc3n[nH]c4cc(Cl)c(C(C)(C)C)cc34)n2C)C1` [Reference Example 3, N-(1-acryloylazetidin-3-yl)-2-(((5-(tert-butyl)-6-chloro-1H-indazol-3-yl)amino)methyl)-1-methyl-4-phenyl-1H-imidazole-5-carboxamide, reference compound], on G12C K-Ras4B (1-169), the “binding rate for G12C K-Ras4B (1-169)” value is reported as “E (a binding rate of less than 20% is rated “E.”)”.
